{"source": "paper PMC5521788", "about": "“In Vitro comparison of ^213Bi- and ^177Lu-radiation for peptide receptor radionuclide therapy” (PLoS ONE, 2017)", "key": {"BON cells": {"system": "BON cells", "assay": "Clonogenic assay, BON cells", "type": "cell-based, human", "procedure": "(§1) Before irradiation of the cells, 500 cells were seeded in 6-well plates (pre-coated with poly-l-lysine) 24 h before the experiment. […] After irradiation, internalization medium containing radioligand was removed. […] Every 2 or 3 d, medium was replaced by fresh culture medium. […] The 6-well plates containing colonies were scanned with a HP-scanner at 200 dpi. The colonies in each well were counted by a clonocounter. The survival was plotted as a function of absorbed dose and fitted to linear-quadratic (LQ) or linear-exponential curves. The cell absorbed dose during the incubation period was calculated with a dosimetry model of the 6-well plate, as described by Verwijnen et al.. The 3.5 cm diameter well cavity was modeled in the Monte Carlo radiation transport code Monte Carlo N-Particle […] (version 2.5.0, Los Alamos National Laboratory, USA) with homogeneously distributed radioactivity over the 2 mL volume aqueous liquid within the cavity."}, "CA20948 cells": {"system": "CA20948 cells", "assay": "Clonogenic assay, CA20948 cells", "type": "cell-based, rat", "procedure": "as §1, with “cavity. […] The division the layers of the well were as followed; 18 layers of 100 μm and 8 layers of 25 μm at the bottom of the well. […] D (25μm←fluid)=Ãfluid(1)×S(25μm←fluid)=∫T0TAfluide^-λtdt×S(25μm←fluid) […] The dosimetry for the specific uptake of radioactivity in the cells was calculated with the multicellular dosimetry code MIRD cell. […] Initially 500 cells were plated over the 9.62 cm^2 surface of the well. For evenly distributed cells over the surface the mean inter-cell distance would be 770 μm. In reality the cells were more clustered to the center of the well. […] The number of disintegrations within each cell (or Time-Integrated Activity per cell ã) was calculated by integration of the decay function of ^177Lu and ^213Bi and its progeny over the 12 d irradiation time multiplied by the ƒint and ƒmem per cell. This assumes that ƒmem will remain bound to the cells and ƒint remains trapped in the cell over a period of 12 d.” for “cavity.”"}}}
{"smiles": "O=C([O-])CN(CCN(CC(=O)[O-])CC(=O)[O-])CCN(CC(=O)[O-])CC(=O)[O-].[213Bi+3]", "note": "[^213Bi-DTPA]", "values": [{"measurement": "RBE at D10 compared to ^137Cs irradiation", "setting": "BON cells", "value": 1.8}, {"measurement": "LQ model parameter α", "setting": "BON cells; 1 h exposure, colonies after 12 d, n = 3", "value": "0.87±0.1 /Gy"}, {"measurement": "D10 (absorbed dose of 10% survival)", "setting": "BON cells; 1 h incubation, 12 d colony growth", "value": 2.5, "unit": "Gy"}, {"measurement": "factor advantage in cell killing compared to ^177Lu-DOTATATE", "setting": "CA20948 cells; 10% survival, CA20948 (abstract)", "value": 6}, {"measurement": "RBE at D10 compared to ^137Cs irradiation", "setting": "CA20948 cells; CA20948", "value": 2.0}, {"measurement": "LQ model parameter α", "setting": "CA20948 cells; CA20948, 1 h exposure, colonies after 12 d, n = 3", "value": "0.74±0.08 /Gy"}, {"measurement": "D10 (absorbed dose of 10% survival)", "setting": "CA20948 cells; CA20948, 1 h incubation, 12 d colony growth", "value": 2.6, "unit": "Gy"}, {"measurement": "RBE at 10% cell survival", "setting": "CA20948 cells; in both low (BON) and high (CA20948) SSTR2 expressing cell lines", "value": "1.5–2.0"}]}
